molecular target: T1, PD-1/PD-L1 (Homo sapiens, UniProt Q9NZQ7); experiment: Homogeneous Time-Resolved Fluorescence (HTRF) PD-1/PD-L1 binding assay; details: CisBio kit
T1 construct: unspecified kit tag (tag1 or tag2, recognised by the detection antibodies); purchased CisBio 64CUS000C-1
Protocol: Homogenouse Time-Resolved Fluorescence (HTRF) binding assay was used to determine the binding activity of the compound of the present disclosure to PD-1/PD-L1.
The purchased kit (CisBio, #64CUS000C-1) contained the reagents required for experiments such as PD-1, PD-L1, anti-tagl-Eu, Anti-tag2-XL665, Dilute Buffer and Detection Buffer.
1. The compound was formulated to 10 concentrations with a three-fold concentration gradient with 100% DMSO.
2. The solution of the compound in DMSO was added to Dilute Buffer, and mixed evenly and then transferred to a 96-well plate.
3. PD-L1 was diluted with Dilute Buffer and added to the 96-well plate above.
4. PD-1 was diluted with Dilute Buffer, then added to the 96-well plate above and incubated at room temperature for 30 minutes.
5. One portion of anti-tag1-Eu and one portion of anti-tag2-XL665 were added to Detection Buffer, mixed evenly and transferred to the 96-well plate above.
6. The mixed solution in the 96-well plate were incubated at room temperature for 1 to 24 hours.
7. HTRF values were read by Envision.

T1 sequence (Q9NZQ7 19-238 limits assumed): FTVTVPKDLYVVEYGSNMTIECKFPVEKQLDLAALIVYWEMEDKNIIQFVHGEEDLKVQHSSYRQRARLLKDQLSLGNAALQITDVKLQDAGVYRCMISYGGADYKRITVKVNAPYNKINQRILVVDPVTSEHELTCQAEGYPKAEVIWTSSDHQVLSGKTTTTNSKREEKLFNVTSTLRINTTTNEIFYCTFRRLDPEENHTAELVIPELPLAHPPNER

Q: `Cc1ccc(CNC(C)(CO)C(=O)O)cc1/C=C/c1cccc(-c2cccc(F)c2)c1C` (stereo not drawn) [Compound 9] was tested. Which IC50 did it give?
A: Its IC50 is 57 nM.

Q: With `Cc1c(CCc2cc(CNC(C)C(=O)O)ccc2C(F)(F)F)cccc1-c1ccccc1` (stereo not drawn) [Compound 22, 2-(3-(2-(2-Methylbiphenyl-3-yl)ethyl)-4-(trifluoromethyl)benzylamino) propanoic Acid] as the molecule, how does the IC50 read?
A: Its IC50 is 44 nM.

Q: How did the IC50 turn out when `Cc1c(/C=C/c2cc(C(C)NCC(=O)O)ccc2C(F)(F)F)cccc1-c1ccccc1` (stereo not drawn) [Compound 32, (E)-2-(1-(3-(2-(2-methylbiphenyl-3-yl)vinyl)-4-(trifluoromethyl)phenyl)ethylamino)acetic Acid] was run?
A: The IC50 was 24 nM.

Q: Which IC50 does the source give for `Cc1ccc(CN[C@@](C)(CO)C(=O)O)cc1/C=C/c1cccc(-c2ccccc2)c1C` [Compound 31, (S,E)-2-(3-(2-(2-methylbiphenyl-3-yl)vinyl)-4-methylbenzylamino)-3-hydroxy-2-methylpropanoic Acid] here?
A: Its IC50 is 41 nM.

Q: Which IC50 does the source give for `Cc1c(/C=C/c2cc(CNC(CO)C(=O)O)ccc2F)cccc1-c1ccc2c(c1)OCCO2` (stereo not drawn) [Compound 12, (E)-2-(3-(3-(2,3-dihydrobenzo[b][1,4]dioxin-6-yl)-2-methylstyryl)-4-fluorobenzylamino)-3-hydroxypropanoic Acid] here?
A: The IC50 was 24 nM.

Q: Which IC50 does the source give for `Cc1ccc(CN[C@@](C)(CO)C(=O)O)cc1/C=C/c1cccc(-c2ccccc2)c1C` [Compound 28, (S,E)-2-(3-(2-(2-methylbiphenyl-3-yl)vinyl)-4-methylbenzylamino)-3-hydroxy-2-methylpropanoic Acid] here?
A: Its IC50 is 29 nM.

Q: Which IC50 does the source give for `Cc1nc2ccc(-c3cccc(/C=C/c4cc(CN[C@@](C)(CO)C(=O)O)ccc4C(F)(F)F)c3C)cc2o1` [Compound 43, (S,E)-3-hydroxy-2-methyl-2-(3-(2-methyl-3-(2-methylbenzo[d]oxazol-6-yl)-styryl)-4-(trifluoromethyl)benzylamino)-3-hydroxy-2-methylpropanoic Acid] here?
A: Its IC50 is 540 nM.

Q: `Cc1ccc(CN[C@@](C)(CO)C(=O)O)cc1/C=C/c1cccc(-c2ccc3c(c2F)OCCO3)c1C` [Compound 26, (S,E)-2-(3-(3-(5-fluoro-2,3-dihydrobenzo[b][1,4]dioxin-6-yl)-2-methylstyryl)-4-methylbenzylamino)-3-hydroxy-2-methylpropanoic Acid] was tested. Which IC50 did it give?
A: The IC50 was 20 nM.

Q: How did the IC50 turn out when `Cc1c(CCc2cc(CNC(C)(CO)C(=O)O)ccc2C(F)(F)F)cccc1-c1ccccc1` (stereo not drawn) [Compound 21, 2-(3-(2-(2-Methylbiphenyl-3-yl)ethyl)-4-(trifluoromethyl)benzylamino)-3-hydroxy-2-methylpropanoic Acid] was run?
A: Its IC50 is 85 nM.

Q: `Cc1c(/C=C/c2cc(CN[C@@](C)(CO)C(=O)O)ccc2C(F)(F)F)cccc1-c1ccc2ncoc2c1` [Compound 35, (S,E)-2-(3-(3-(benzo[d]oxazol-6-yl)-2-methylstyryl)-4-(trifluoromethyl)benzylamino)-3-hydroxy-2-methylpropanoic Acid] was tested. Which IC50 did it give?
A: Its IC50 is 1100 nM.

Q: With `Cc1c(/C=C/c2cc(CN[C@@](C)(CO)C(=O)O)ccc2C(F)(F)F)cccc1-c1cccnc1` [Compound 40, (S,E)-3-hydroxy-2-methyl-2-(3-(2-methyl-3-(pyridin-3-yl)styryl)-4-(trifluoromethyl)benzylamino)propanoic Acid] as the molecule, how does the IC50 read?
A: The IC50 was 580 nM.

Q: How did the IC50 turn out when `Cc1ccc(CN[C@@H](CO)C(=O)O)cc1/C=C/c1cccc(-c2ccc3c(c2F)OCCO3)c1C` [Compound 14, (S,E)-2-(3-(3-(5-fluoro-2,3-dihydrobenzo[b][1,4]dioxin-6-yl)-2-methylstyryl)-4-methylbenzylamino)-3-hydroxypropanoic Acid] was run?
A: Its IC50 is 19 nM.

Q: `Cc1c(/C=C/c2cc(CN[C@@](C)(CO)C(=O)O)ccc2C(F)(F)F)cccc1-c1ccc2nccn2c1` [Compound 36] was tested. Which IC50 did it give?
A: The IC50 was over 10000 nM.

Q: With `Cc1ccc(CNC(C)(CO)C(=O)O)cc1/C=C/c1cccc(-c2ccccc2)c1C` (stereo not drawn) [Compound 8, (E)-2-(3-(2-(2-methylbiphenyl-3-yl)vinyl)-4-methylbenzylamino)-3-hydroxy-2-methylpropanoic Acid] as the molecule, how does the IC50 read?
A: The IC50 was 42 nM.

Q: With `C[C@@](CO)(NCc1ccc(C(F)(F)F)c(/C=C/c2cccc(-c3ccccc3)c2F)c1)C(=O)O` [Compound 33, (S,E)-2-(3-(2-(2-fluorobiphenyl-3-yl)vinyl)-4-(trifluoromethyl)benzylamino)-3-hydroxy-2-methylpropanoic Acid] as the molecule, how does the IC50 read?
A: The IC50 was 230 nM.

Q: Which IC50 does the source give for `Cc1c(/C=C/c2cc(CN[C@@](C)(CO)C(=O)O)ccc2C(F)(F)F)cccc1-c1ccccn1` [Compound 39, (S,E)-3-hydroxy-2-methyl-2-(3-(2-methyl-3-(pyridin-2-yl)styryl)-4-(trifluoromethyl)benzylamino)propanoic Acid] here?
A: The IC50 was 2200 nM.

Q: Which IC50 does the source give for `Cc1c(/C=C/c2cc(CNC(C)(CO)C(=O)O)ccc2C(F)(F)F)cccc1-c1cccc(F)c1` (stereo not drawn) [Compound 3, (E)-2-(3-(2-(3′-fluoro-2-methylbiphenyl-3-yl)vinyl)-4-(trifluoromethyl)benzylamino)-3-hydroxy-2-methylpropanoic Acid] here?
A: The IC50 was 46 nM.

Q: With `Cc1c(/C=C/c2cc(CN[C@@H](CO)C(=O)O)ccc2C(F)(F)F)cccc1-c1ccc2c(c1F)OCCO2` [Compound 16] as the molecule, how does the IC50 read?
A: Its IC50 is 13 nM.

Q: How did the IC50 turn out when `Cc1c(/C=C/c2cc(CN[C@@](C)(CO)C(=O)O)ccc2C(F)(F)F)cccc1-c1ccc2cn(C)nc2c1` [Compound 42, (S,E)-3-hydroxy-2-methyl-2-(3-(2-methyl-3-(2-methyl-2H-indazol-6-yl)-styryl)-4-(trifluoromethyl)benzylamino)propanoic Acid] was run?
A: Its IC50 is 880 nM.

Q: `Cc1c(CCc2cc(CNC(CO)C(=O)O)ccc2C(F)(F)F)cccc1-c1ccccc1` (stereo not drawn) [Compound 18, 2-(3-(2-(2-Methylbiphenyl-3-yl)ethyl)-4-(trifluoromethyl)benzylamino)-3-hydroxypropanoic Acid] was tested. Which IC50 did it give?
A: The IC50 was 46 nM.

Q: `Cc1c(/C=C/c2cc(CN[C@@](C)(CO)C(=O)O)ccc2C(F)(F)F)cccc1-c1cn2ccnc2cn1` [Compound 37] was tested. Which IC50 did it give?
A: Its IC50 is 1300 nM.

Q: For `Cc1ccc(CNC(C)(CO)C(=O)O)cc1/C=C/c1cccc(-c2ccc(F)cc2)c1C` (stereo not drawn) [Compound 7, (E)-2-(3-(2-(4′-fluoro-2-methylbiphenyl-3-yl)vinyl)-4-methylbenzylamino)-3-hydroxy-2-methylpropanoic Acid], which IC50 is on record?
A: Its IC50 is 1400 nM.

Q: Which IC50 does the source give for `Cc1c(/C=C/c2cc(CNC(CO)C(=O)O)ccc2C(F)(F)F)cccc1-c1cccc(F)c1F` (stereo not drawn) [Compound 15, (E)-2-(3-(2-(2′,3′-difluoro-2-methylbiphenyl-3-yl)vinyl)-4-(trifluoromethyl)benzylamino)-3-hydroxypropanoic Acid] here?
A: The IC50 was 14 nM.

Q: `Cc1c(/C=C/c2cc(CNC(CO)(CO)C(=O)O)ccc2C(F)(F)F)cccc1-c1ccccc1` [Compound 19, (E)-2-(3-(2-(2-methylbiphenyl-3-yl)vinyl)-4-(trifluoromethyl)benzylamino)-3-hydroxy-2-hydroxymethylpropanoic Acid] was tested. Which IC50 did it give?
A: The IC50 was 61 nM.

Q: `Cc1c(/C=C/c2cc(CNC(C)(CO)C(=O)O)ccc2C(F)(F)F)cccc1-c1ccccc1F` (stereo not drawn) [Compound 17, (E)-2-(3-(2-(2′-fluoro-2-methylbiphenyl-3-yl)vinyl)-4-(trifluoromethyl)benzylamino)-3-hydroxy-2-methylpropanoic Acid] was tested. Which IC50 did it give?
A: Its IC50 is 20 nM.

Q: How did the IC50 turn out when `Cc1c(/C=C/c2cc(CNC(C)(CO)C(=O)O)ccc2C(F)(F)F)cccc1-c1ccc(F)cc1` (stereo not drawn) [Compound 6, (E)-2-(3-(2-(4′-fluoro-2-methylbiphenyl-3-yl)vinyl)-4-(trifluoromethyl)benzylamino)-3-hydroxy-2-methylpropanoic Acid] was run?
A: The IC50 was 320 nM.

Q: How did the IC50 turn out when `Cc1c(/C=C/c2cc(CNC(CO)C(=O)O)ccc2C(F)(F)F)cccc1-c1ccc2c(c1)OCCO2` (stereo not drawn) [Compound 1, (E)-2-(3-(3-(2,3-dihydrobenzo[b][1,4]dioxin-6-yl)-2-methylstyryl)-4-(trifluoromethyl)benzylamino)-3-hydroxypropanoic Acid] was run?
A: The IC50 was 14 nM.

Q: With `Cc1c(/C=C/c2cc(CN[C@@](C)(CO)C(=O)O)ccc2C(F)(F)F)cccc1-c1ccc2cnoc2c1` [Compound 38, (S,E)-2-(3-(3-(benzo[d]isoxazol-6-yl)-2-methylstyryl)-4-(trifluoromethyl)benzylamino)-3-hydroxy-2-methylpropanoic Acid] as the molecule, how does the IC50 read?
A: Its IC50 is over 10000 nM.

Q: `Cc1c(/C=C/c2cc(CNC(C)(CO)C(=O)O)ccc2C(F)(F)F)cccc1-c1ccccc1` (stereo not drawn) [Compound 5, (E)-2-(3-(2-(2-methylbiphenyl-3-yl)vinyl)-4-(trifluoromethyl)benzylamino)-3-hydroxy-2-methylpropanoic Acid] was tested. Which IC50 did it give?
A: Its IC50 is 23 nM.

Q: With `Cc1c(/C=C/c2cc(CNC(C)(CO)C(=O)O)ccc2C(F)(F)F)cccc1-c1cccc(F)c1F` (stereo not drawn) [Compound 23, (E)-2-(3-(2-(2′,3′-difluoro-2-methylbiphenyl-3-yl)vinyl)-4-(trifluoromethyl)benzylamino)-3-hydroxy-2-methylpropanoic Acid] as the molecule, how does the IC50 read?
A: The IC50 was 26 nM.

Q: With `C[C@](CO)(NCc1ccc(C(F)(F)F)c(/C=C/c2cccc(-c3ccccc3)c2F)c1)C(=O)O` [Compound 34, (R,E)-2-(3-(2-(2-fluorobiphenyl-3-yl)vinyl)-4-(trifluoromethyl)benzylamino)-3-hydroxy-2-methylpropanoic Acid] as the molecule, how does the IC50 read?
A: The IC50 was 180 nM.

Q: Which IC50 does the source give for `COc1ccc(-c2cccc(/C=C/c3cc(CNC(C)(CO)C(=O)O)ccc3C)c2C)cc1` (stereo not drawn) [Compound 2, (E)-2-((3-(2-(4′-methoxy-2-methylbiphenyl-3-yl)vinyl)-4-methylbenzyl)amino)-3-hydroxy-2-methylpropanoic Acid] here?
A: The IC50 was 3100 nM.

Q: How did the IC50 turn out when `Cc1ccc(CN[C@@](C)(CO)C(=O)O)cc1/C=C/c1cccc(-c2ccc3c(c2F)OCCO3)c1C` [Compound 30, (S,E)-2-(3-(3-(5-fluoro-2,3-dihydrobenzo[b][1,4]dioxin-6-yl)-2-methylstyryl)-4-methylbenzylamino)-3-hydroxy-2-methylpropanoic Acid] was run?
A: The IC50 was 27 nM.

Reference: patent US20220168268A1, “SMALL-MOLECULE INHIBITOR OF PD-1/PD-L1, PHARMACEUTICAL COMPOSITION THEREOF WITH PD-L1 ANTIBODY, AND APPLICATION OF SAME” (Guangzhou Maxinovel Pharmaceuticals Co., Ltd., priority 2019, published 2022)
